Laboratory results: article PMC9648375, “Identification of the first-in-class dual inhibitors of human DNA topoisomerase IIα and indoleamine-2,3-dioxygenase 1 (IDO 1) with strong anticancer properties” (Journal of Enzyme Inhibition and Medicinal Chemistry, 2022)
Values after ≈ are worked out from the molar mass of the structure shown. Read-outs that look alike come from different tables or passages of the source.

What was measured:
[1] = tested on: AGS (human gastric adenocarcinoma); experiment: MTT assay; assay type: cell-based; settings: read-out: IC50, cytotoxicity
Procedure: (§1) Therefore, the whole set of compounds were tested by using MTT assay in order to check their overall cytotoxic effect. The growth of cells was monitored after 24 and 48 h of incubation with the increased concentrations (1–100 µg/ml) of the thiosemicarbazide derivatives. […] This confirms that the compounds tested combine different mechanisms of anticancer activity, and DNA topoisomerase II inhibition is only one of them.
(§2) Cytotoxicity of the synthesised compounds were examined against a panel of the cancer cell lines, MCF-7 (estrogen-dependent human breast cancer cells), MDA-MB-231 (oestrogen-independent human breast cancer cells), SCC- 25 (squamous cell carcinoma of the tongue), FaDu (squamous cell carcinoma of the pharynx), A- 549 (human lung carcinoma), AGS (human gastric adenocarcinoma), LS-180, HT-29 (colon cancer cell lines), T98G (glioblastoma cells), A375 (melanoma cells). Human embryonic kidney (HEK-293) cells and human normal skin fibroblasts (CRL-2072) were used as reference cell lines. The investigated cell lines were obtained from American Type Culture Collection (ATCC; Manassas, VA, USA). A375, MCF-7, MDA-MB-231, T98G cells were cultured in Dulbecco’s Modified Eagle’s Medium (DMEM) (Sigma Aldrich, St. Louis, MO, USA) supplemented with 10% heat inactivated foetal bovine serum (FBS), penicillin (100 U/mL), and streptomycin (100 μg/mL). SCC-25 cells were cultured in 1:1 mixture of Dulbecco’s modified Eagle’s medium and Ham’s F12 Medium (Sigma Aldrich, St. Louis, MO, USA) supplemented with 400 ng/ml hydrocortisone, 10% FBS, penicillin (100 U/mL), and streptomycin (100 μg/mL). A549 and AGS cells were maintained in F-12K Medium (Sigma Aldrich, St. Louis, MO, USA). LS-180 and FaDu cells were cultured in Eagle’s Minimum Essential Medium. HT-29 cells were maintained in McCoy’s 5 A Medium (Sigma Aldrich, St. Louis, MO, USA) supplemented with 10%FBS, penicillin (100 U/mL), and streptomycin (100 μg/mL). All the cells were maintained at 37 °C in a humidified atmosphere of 5% CO2.
(§3) The synthesised compounds were dissolved in DMSO in order to obtain stock solutions. At the day of the experiment, the suspension of cells (1 × 10^5 cells/mL) in the respective medium was applied to a 96-well plate at 100 μL per well. […] The control cells were cultured only with a medium containing 2% FBS. Cytotoxicity of DMSO was also checked at concentrations present in respective dilutions of stock solution. After 24 h (or 48 h) of incubation, 15 μL of MTT working solution (5 mg/mL in PBS) was added to each well. The plate was incubated for 3 h. Subsequently, 100 μL of 10% SDS solution was added to each well. Cells were incubated overnight at 37 °C to dissolve the precipitated formazan crystals. The concentration of the dissolved formazan was evaluated by measuring the absorbance at λ = 570 nm, using a microplate reader (Epoch, BioTek Instruments, Inc., Winooski, VT, USA). At least two independent experiments were performed in triplicates. The results of the MTT assay were expressed as mean ± SD. […] IC50 values of the investigated derivatives and standards were calculated using the IC50 calculator.[23]

[2] = tested on: SCC-25 (squamous cell carcinoma of the tongue); experiment: MTT assay; assay type: cell-based; settings: Homo sapiens, SCC-25, MTT, read-out: IC50, cytotoxicity
Procedure: as §1, §2, §3

[3] = tested on: MCF-7 (estrogen-dependent human breast cancer cells); experiment: MTT assay; assay type: cell-based; settings: MCF7, MCF-7, MTT, read-out: IC50, cytotoxicity
Procedure: as §1, §2, §3

A375 (melanoma cells) = experiment: MTT assay; assay type: cell-based; settings: Homo sapiens, read-out: IC50, cytotoxicity
Procedure: as §1, §2, §3

[4] = tested on: MDA-MB-231 (estrogen-independent human breast cancer cells); experiment: MTT assay; assay type: cell-based; settings: MDA-MB-231, MTT, read-out: IC50, cytotoxicity
Procedure: as §1, §2, §3

MTT assay = assay type: cell-based; settings: human, HEK-293 cells (normal reference cell line), HEK-293 (normal cells), read-out: IC50, cytotoxicity
Procedure: as §1, §2, §3

[5] = tested on: FaDu (squamous cell carcinoma of the pharynx); experiment: MTT assay; assay type: cell-based; settings: Homo sapiens, read-out: IC50, cytotoxicity
Procedure: as §1, §2, §3

[6] = tested on: LS180 (colon cancer cell line); experiment: MTT assay; assay type: cell-based; settings: Homo sapiens, read-out: IC50, cytotoxicity
Procedure: as §1, §2, §3

[7] = tested on: T98G (glioblastoma cells); experiment: MTT assay; assay type: cell-based; settings: Homo sapiens, read-out: IC50, cytotoxicity
Procedure: as §1, §2, §3

[8] = tested on: A549 (human lung carcinoma); experiment: MTT assay; assay type: cell-based; settings: read-out: IC50, cytotoxicity
Procedure: as §1, §2, §3

[9] = tested on: HT-29 (colon cancer cell line); experiment: MTT assay; assay type: cell-based; settings: Homo sapiens, HT-29, MTT, read-out: IC50, cytotoxicity
Procedure: as §1, §2, §3

[10] = biological target: T1, indoleamine-2,3-dioxygenase 1 (IDO 1) (Homo sapiens, UniProt P14902); experiment: Universal IDO1/IDO2/TDO Inhibitor Screening Assay Kit; assay type: biochemical; settings: fixed dose of 50 µg/ml; read-out: IDO 1 inhibition (%) ± SD
T1 construct: purchased BPS Bioscience, Inc. (San Diego, CA, USA)
Procedure: Inhibitory effects of the investigated compounds were determined using Universal IDO1/IDO2/TDO Inhibitor Screening Assay Kit from BPS Bioscience, Inc. (San Diego, CA, USA). This colorimetric assay is based on the measurement of the ability of IDO1, IDO2 and TDO to convert L-tryptophan into N-formylkynurenine (NFK). The experiments were performed according to the manufacturer’s guidelines. The final concentration of the compounds in the reaction mixture was 50 µg/mL. The amount of NFK was measured spectrophotometrically at 320 nm using Epoch BioTek microplate reader (BioTek Instruments, Inc., Winooski, VT, USA). The samples were run in triplicate and the results were expressed as mean ± SD.

[11] = biological target: T2, human DNA topoisomerase IIα (Homo sapiens, UniProt P11388); experiment: Human topoisomerase IIα relaxation assay; assay type: biochemical; settings: agarose gel, densitometry; read-out: IC50 ± SD, relaxation activity of human DNA topoisomerase IIα
T2 construct: purchased Inspiralis Ltd, Norwich, UK
T2 sequence (P11388 whole entry): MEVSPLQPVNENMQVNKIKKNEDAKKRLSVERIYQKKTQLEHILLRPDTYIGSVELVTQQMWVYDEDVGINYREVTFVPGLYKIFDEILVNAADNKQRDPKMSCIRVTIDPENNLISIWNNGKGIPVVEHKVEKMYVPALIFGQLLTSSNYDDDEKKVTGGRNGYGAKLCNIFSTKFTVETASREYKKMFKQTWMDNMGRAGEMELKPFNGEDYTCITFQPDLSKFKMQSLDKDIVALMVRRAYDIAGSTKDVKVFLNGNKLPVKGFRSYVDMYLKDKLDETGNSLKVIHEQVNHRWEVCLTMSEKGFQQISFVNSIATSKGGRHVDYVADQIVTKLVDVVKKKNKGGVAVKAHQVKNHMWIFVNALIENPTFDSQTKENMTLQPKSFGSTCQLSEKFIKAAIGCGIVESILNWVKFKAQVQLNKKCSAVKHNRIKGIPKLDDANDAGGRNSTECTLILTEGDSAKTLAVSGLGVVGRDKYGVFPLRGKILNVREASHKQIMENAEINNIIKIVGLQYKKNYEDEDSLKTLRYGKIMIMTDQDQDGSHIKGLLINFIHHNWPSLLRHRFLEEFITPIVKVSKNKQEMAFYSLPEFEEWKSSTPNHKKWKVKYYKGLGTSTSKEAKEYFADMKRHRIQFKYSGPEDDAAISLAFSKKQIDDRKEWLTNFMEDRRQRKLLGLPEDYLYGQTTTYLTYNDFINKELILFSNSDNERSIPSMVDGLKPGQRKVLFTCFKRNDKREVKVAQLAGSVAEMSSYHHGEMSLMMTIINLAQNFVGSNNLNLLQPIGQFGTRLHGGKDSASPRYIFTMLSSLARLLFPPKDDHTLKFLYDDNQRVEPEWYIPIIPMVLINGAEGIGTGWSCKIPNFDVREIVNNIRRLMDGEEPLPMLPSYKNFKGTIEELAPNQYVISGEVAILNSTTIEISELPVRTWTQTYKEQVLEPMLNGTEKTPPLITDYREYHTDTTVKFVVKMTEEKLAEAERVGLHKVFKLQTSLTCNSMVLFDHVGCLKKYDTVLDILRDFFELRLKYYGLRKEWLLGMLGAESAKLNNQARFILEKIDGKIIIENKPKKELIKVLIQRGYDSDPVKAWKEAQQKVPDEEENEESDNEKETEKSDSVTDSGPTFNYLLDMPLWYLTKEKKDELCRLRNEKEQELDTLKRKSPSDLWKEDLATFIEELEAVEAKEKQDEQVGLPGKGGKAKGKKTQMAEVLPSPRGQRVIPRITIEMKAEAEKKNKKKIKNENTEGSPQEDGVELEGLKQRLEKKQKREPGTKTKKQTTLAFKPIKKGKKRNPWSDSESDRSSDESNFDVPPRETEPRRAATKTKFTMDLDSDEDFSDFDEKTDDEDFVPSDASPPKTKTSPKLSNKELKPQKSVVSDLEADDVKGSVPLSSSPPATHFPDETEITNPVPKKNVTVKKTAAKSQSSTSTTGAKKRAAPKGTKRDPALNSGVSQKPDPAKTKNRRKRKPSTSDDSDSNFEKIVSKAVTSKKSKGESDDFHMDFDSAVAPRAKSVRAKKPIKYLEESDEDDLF
Procedure: As relaxation of supercoiled DNA (scDNA) is one of numerous functions of topoisomerase IIα, so the appearance/disappearance of relaxed DNA bands during agarose gel electrophoresis can be used to identify compounds that inhibit the enzyme.
Briefly, the increased concentrations of the compounds were mixed with the reaction mixture, incubated according to the protocol and, after reaction termination, the samples were analysed by electrophoresis using 1% agarose gel containing 0.5 mg/mL of ethidium bromide in Tris-Acetate-EDTA (TAE) buffer. Visualisation of the bands was performed using an enhanced chemiluminescence system (Syngene G:BOX Chemi XT4, Cambridge, UK). For the quantitative determination of topoisomerase II inhibition, images were densitometrically scanned.
The inhibition of topoisomerase II was calculate from the equation: % Inhibition=Intensity of compound−treated DNA/Intensity of vehicle−treated control DNA×100

T1 sequence (P14902 whole entry): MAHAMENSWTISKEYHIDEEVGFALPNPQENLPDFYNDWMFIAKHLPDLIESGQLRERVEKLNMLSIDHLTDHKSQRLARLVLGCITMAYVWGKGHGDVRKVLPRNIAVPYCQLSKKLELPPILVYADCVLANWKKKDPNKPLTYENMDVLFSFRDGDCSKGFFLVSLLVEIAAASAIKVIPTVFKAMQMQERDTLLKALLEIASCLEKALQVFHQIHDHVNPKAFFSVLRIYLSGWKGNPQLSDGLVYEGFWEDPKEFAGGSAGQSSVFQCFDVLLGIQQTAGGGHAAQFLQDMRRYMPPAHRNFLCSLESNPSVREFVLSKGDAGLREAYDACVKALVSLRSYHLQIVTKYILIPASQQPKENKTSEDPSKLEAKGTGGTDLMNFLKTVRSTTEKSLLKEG

Structure (SMILES)	IC50 ([1]; 24h) [µg/mL]	IC50 ([1]; 48 h) [µg/mL]	IC50 ([2]; 24h) [µg/mL]	IC50 ([2]; 48 h) [µg/mL]	IC50 ([3]; 24h) [µg/mL]	IC50 ([3]; 48h) [µg/mL]	IC50 (A375 (melanoma cells); A-375, 24h) [µg/mL]	IC50 (A375 (melanoma cells); A-375, 48 h) [µg/mL]	IC50 ([4]; 24h) [µg/mL]	IC50 ([4]; 48h) [µg/mL]	IC50 at 24 h (MTT assay) [µg/mL]	IC50 at 48 h (MTT assay) [µg/mL]	IC50 ([5]; 24h) [µg/mL]	IC50 ([5]; 48 h) [µg/mL]	IC50 ([6]; 24h) [µg/mL]	IC50 ([6]; 48 h) [µg/mL]	IC50 ([7]; 24h) [µg/mL]	IC50 ([7]; 48h) [µg/mL]	IC50 ([8]; 24h) [µg/mL]	IC50 ([8]; 48h) [µg/mL]	other results
O=C(NNC(=S)Nc1ccc(N=Nc2ccccc2)cc1)c1ccccc1[N+](=O)[O-] [Compound 3, 4-(4-Phenylazophenyl)-1-(2-nitrobenzoyl)thiosemicarbazide]	5.54 (≈ 13.2 µM)	4.31 (≈ 10.3 µM)	4.76 (≈ 11.3 µM)	3.87 (≈ 9.2 µM)	7.67 (≈ 18.2 µM)	5.48 (≈ 13 µM)	1.8 (≈ 4.28 µM)	0.56 (≈ 1.33 µM)	10.5 (≈ 24.9 µM)	6.02 (≈ 14.3 µM)	27.5 (≈ 65.5 µM)	9.19 (≈ 21.9 µM)	2.49 (≈ 5.92 µM)	2.18 (≈ 5.18 µM)	3.12 (≈ 7.42 µM)	2.7 (≈ 6.42 µM)	3.35 (≈ 7.97 µM)	2.94 (≈ 6.99 µM)	5.37 (≈ 12.8 µM)	5.13 (≈ 12.2 µM)	IC50 ([9]; 24h): 7.37 µg/mL (≈ 17.5 µM); IC50 ([9]; 48 h): 3.77 µg/mL (≈ 8.97 µM); inhibition at 50 µg/mL [10]: 21.4 ± 1.05%; IC50 [11]: 76.8 ± 4.85 µM
COc1cc([C@@H]2c3cc4c(cc3[C@@H](O[C@@H]3O[C@@H]5CO[C@@H](C)O[C@H]5[C@H](O)[C@H]3O)[C@H]3COC(=O)[C@H]23)OCO4)cc(OC)c1O [Etoposide, etoposide, reference compound]	50.8 (≈ 86.3 µM)	29.8 (≈ 50.6 µM)	59.1 (≈ 100 µM)	23.7 (≈ 40.3 µM)	> 100	6.15 (≈ 10.4 µM)	10.2 (≈ 17.3 µM)	6.48 (≈ 11 µM)	> 100	40.3 (≈ 68.5 µM)	37.9 (≈ 64.3 µM)	29.1 (≈ 49.5 µM)	12.5 (≈ 21.3 µM)	10.7 (≈ 18.2 µM)	> 100	11.7 (≈ 19.9 µM)	> 100	17.1 (≈ 29 µM)	> 100	15.6 (≈ 26.5 µM)	IC50 ([9]; 24h): 94.5 µg/mL (≈ 161 µM); IC50 ([9]; 48 h): 11.3 µg/mL (≈ 19.2 µM)
CC(C)c1cccc(C(C)C)c1NC(=S)NNC(=O)Cc1cccc2ccccc12 [Compound 1, 4-(2,6-Diisopropylphenyl)-1-[(naphth-1-yl)acetyl]thiosemicarbazide]	5.92 (≈ 14.1 µM)	2.69 (≈ 6.41 µM)	7.06 (≈ 16.8 µM)	5.22 (≈ 12.4 µM)	9.82 (≈ 23.4 µM)	8.45 (≈ 20.1 µM)	4.57 (≈ 10.9 µM)	1.82 (≈ 4.34 µM)	9.21 (≈ 21.9 µM)	8.04 (≈ 19.2 µM)	17.6 (≈ 41.9 µM)	9.61 (≈ 22.9 µM)	7.26 (≈ 17.3 µM)	2.01 (≈ 4.79 µM)	4.57 (≈ 10.9 µM)	2.54 (≈ 6.05 µM)	6.98 (≈ 16.6 µM)	2.27 (≈ 5.41 µM)	3.87 (≈ 9.22 µM)	2.27 (≈ 5.41 µM)	IC50 ([9]; 24h): 8.96 µg/mL (≈ 21.4 µM); IC50 ([9]; 48 h): 5.33 µg/mL (≈ 12.7 µM); inhibition at 50 µg/mL [10]: 91.4 ± 1.82%; IC50 [11]: 71 ± 4.81 µM
O=C(Cc1cccc2ccccc12)NNC(=S)Nc1ccc(N=Nc2ccccc2)cc1 [Compound 2, 4-(4-Phenylazophenyl)-1-[(naphth-1-yl)acetyl]thiosemicarbazide]	5.32 (≈ 12.1 µM)	2.96 (≈ 6.73 µM)	4.73 (≈ 10.8 µM)	3.12 (≈ 7.1 µM)	9.18 (≈ 20.9 µM)	8.85 (≈ 20.1 µM)	8.96 (≈ 20.4 µM)	2.47 (≈ 5.62 µM)	7.64 (≈ 17.4 µM)	7.07 (≈ 16.1 µM)	15.6 (≈ 35.5 µM)	10 (≈ 22.8 µM)	2.75 (≈ 6.26 µM)	2.54 (≈ 5.78 µM)	2.87 (≈ 6.53 µM)	2.24 (≈ 5.1 µM)	5.53 (≈ 12.6 µM)	4.85 (≈ 11 µM)	5.84 (≈ 13.3 µM)	5.78 (≈ 13.1 µM)	IC50 ([9]; 24h): 8.96 µg/mL (≈ 20.4 µM); IC50 ([9]; 48 h): 5.33 µg/mL (≈ 12.1 µM); inhibition at 50 µg/mL [10]: 41.4 ± 2.47%; IC50 [11]: 43.1 ± 2.27 µM
